Results on 17 molecules are retold here after patent US20220402948A1, “EGFR INHIBITOR, COMPOSITION AND PREPARATION METHOD THEREFOR” (BETTA PHARMACEUTICALS CO., LTD., priority 2019, published 2022).

Assay [1] deals with Ba/F3 cells with EGFR Δ19del/T790M/C797S mutation gene stably overexpressed (Homo sapiens, UniProt P00533, T790M/C797S, cells depend on it, form not given). In words: Ba/F3-Δ19del/T790M/C797S cell proliferation assay (CellTiter Glo, 72 hours). It is filed as cell-based. The procedure, abridged:
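Ba/F3 cells stably overexpressing wild-type EGFR or EGFR Δ19del/T790M/C797S were seeded at 2000 cells/well and incubated 72 h with compound. Viability was read by CellTiter-Glo luminescence, and IC50 came from a four-parameter logistic fit of signal against log concentration.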
(In ATP-based viability assays light output follows the ATP content of the culture.)

In assay [2] the target is Ba/F3-EGFR wild-type cell line (Homo sapiens, UniProt P00533). In words: Ba/F3-EGFR wild-type cell proliferation assay (CellTiter Glo, 72 hours). The assay is classed as cell-based. As to conditions: Table 2, read-out: EGFR WT IC50. The procedure: Cell line: Ba/F3 cells with EGFR Δ19del/T790M/C797S mutation gene stably overexpressed named Ba/F3-Δ119del/T90M/C797S, and A431 and Ba/F3-EGFR wild-type cell line.
a) Centrifuge the growth cells in logarithmic phase at 1000 rpm for 5 minutes, resuspend the cells in culture medium, and then count the cells;
b) Inoculate the cells into a 96-well cell culture plate with a density of 2000 cells/well;
b) Incubate cells in an incubator for another 72 hours.
a) Take out the 96-well cell culture plate and add 50 μl CTG reagent (CellTiter Glo kit, promega, Cat #G7573);
b) Shake the plate for 2 minutes and let cool at room temperature for 10 minutes;
c) Read luminous signal value with PerkinElmer reader,
Analysis of Experimental Data
The data were analyzed by GraphPad Prism 6.0 software to obtain the fitting curve of compound activity.
Y=Min+(Max−Min)/(1+10^((Log IC50−X)*slope));
X: Logarithm of compound concentration; Y: luminous signal.

Assay [3] relates to A431. In words: A431 cell proliferation assay (CellTiter Glo, 72 hours). It is filed as cell-based. Particulars: Homo sapiens, A-431, 72 h; for pIC50: cell proliferation, A431, 72 hours, Table 2, read-out: A431 IC50. The method, boiled down:
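A431 cells (2000/well) exposed 72 h to compound at 1000 nM down to 0.2 nM in 3-fold steps, 0.1% DMSO (0.5% for some series). Viability by CellTiter-Glo luminescence; IC50 by four-parameter nonlinear regression.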

Assay [4] has as its target EGFRΔ19del/T790M/C797S (Homo sapiens, UniProt P00533, T790M/C797S, form not given). In words: EGFR Δ19del/T790M/C797S kinase test (mobility variation analysis, Caliper EZ Reader). The assay is classed as biochemical. Particulars: kinase enzymatic activity, Table 1. The procedure, abridged: (§1)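 Kinase pre-incubated with compound 10 minutes at room temperature, then ATP plus peptide substrate added; substrate conversion read by mobility shift after stop solution. Percent inhibition normalized to no-compound and no-enzyme controls; IC50 from variable-slope log(inhibitor) fit.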

In assay [5] the target is IGF1R (Homo sapiens, UniProt P08069). In words: IGF1R kinase test (mobility variation analysis, Caliper EZ Reader). The assay is classed as biochemical. Particulars: kinase enzymatic activity, Table 1; read-out: EGFR IGF1R IC50. The method, boiled down: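 Kinase preincubated 10 min at room temperature with compound (10-point 3-fold series, top 3000 nM), then ATP and substrate added and reacted at room temperature. Substrate conversion read by mobility-shift (Caliper EZ Reader); % inhibition vs no-enzyme and no-compound controls fitted to variable-slope curve for IC50.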

The target in assay [6] is EGFR WT (Homo sapiens, UniProt P00533). In words: EGFR WT kinase test (mobility variation analysis, Caliper EZ Reader). As to conditions: kinase enzymatic activity, Table 1. The assay is classed as biochemical. The method, boiled down:
as §1

Setting [7] is: Table 2, read-out: EGFR Δ19del/T790M/C797S IC50.

pIC50: −log10 of the molar value. Like-named read-outs stand apart in the source and are kept apart here.

Sequence of Ba/F3 cells with EGFR Δ19del/T790M/C797S mutation gene stably overexpressed (P00533 with tags, fused parts or gaps DEL746-750/T790M/C797S, form open): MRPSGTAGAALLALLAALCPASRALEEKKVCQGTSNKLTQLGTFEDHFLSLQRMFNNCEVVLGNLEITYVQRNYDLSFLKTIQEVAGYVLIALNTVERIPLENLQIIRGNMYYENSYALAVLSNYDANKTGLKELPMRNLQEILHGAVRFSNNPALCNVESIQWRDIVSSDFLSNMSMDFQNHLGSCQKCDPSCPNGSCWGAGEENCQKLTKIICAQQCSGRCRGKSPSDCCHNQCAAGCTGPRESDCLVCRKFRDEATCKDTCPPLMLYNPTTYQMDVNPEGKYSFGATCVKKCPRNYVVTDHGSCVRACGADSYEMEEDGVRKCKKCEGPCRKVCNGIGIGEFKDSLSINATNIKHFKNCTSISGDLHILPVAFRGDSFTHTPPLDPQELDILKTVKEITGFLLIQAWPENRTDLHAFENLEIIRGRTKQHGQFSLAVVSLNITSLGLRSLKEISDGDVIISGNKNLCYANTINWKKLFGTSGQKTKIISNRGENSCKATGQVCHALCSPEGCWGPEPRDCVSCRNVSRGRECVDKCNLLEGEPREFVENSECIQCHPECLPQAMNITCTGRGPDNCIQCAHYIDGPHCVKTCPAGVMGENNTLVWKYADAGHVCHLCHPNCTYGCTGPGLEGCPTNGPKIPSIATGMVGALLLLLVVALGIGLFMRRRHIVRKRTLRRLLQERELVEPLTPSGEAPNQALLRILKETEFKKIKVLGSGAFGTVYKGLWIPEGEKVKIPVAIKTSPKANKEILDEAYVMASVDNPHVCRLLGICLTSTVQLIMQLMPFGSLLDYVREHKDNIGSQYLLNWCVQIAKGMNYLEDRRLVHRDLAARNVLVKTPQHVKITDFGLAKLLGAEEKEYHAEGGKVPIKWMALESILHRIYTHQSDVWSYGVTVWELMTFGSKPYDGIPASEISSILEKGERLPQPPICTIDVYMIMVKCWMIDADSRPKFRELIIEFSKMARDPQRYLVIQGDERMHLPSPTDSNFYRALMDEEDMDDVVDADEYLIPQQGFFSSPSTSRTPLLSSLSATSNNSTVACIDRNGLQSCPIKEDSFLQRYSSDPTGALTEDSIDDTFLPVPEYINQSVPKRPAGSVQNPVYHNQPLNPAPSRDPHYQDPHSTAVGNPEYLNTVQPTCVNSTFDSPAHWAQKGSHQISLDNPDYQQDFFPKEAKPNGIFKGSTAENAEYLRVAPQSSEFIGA
Sequence of EGFRΔ19del/T790M/C797S (P00533 with tags, fused parts or gaps DEL746-750/T790M/C797S, form open): as above
Sequence of IGF1R (P08069 31-1367, species assumed): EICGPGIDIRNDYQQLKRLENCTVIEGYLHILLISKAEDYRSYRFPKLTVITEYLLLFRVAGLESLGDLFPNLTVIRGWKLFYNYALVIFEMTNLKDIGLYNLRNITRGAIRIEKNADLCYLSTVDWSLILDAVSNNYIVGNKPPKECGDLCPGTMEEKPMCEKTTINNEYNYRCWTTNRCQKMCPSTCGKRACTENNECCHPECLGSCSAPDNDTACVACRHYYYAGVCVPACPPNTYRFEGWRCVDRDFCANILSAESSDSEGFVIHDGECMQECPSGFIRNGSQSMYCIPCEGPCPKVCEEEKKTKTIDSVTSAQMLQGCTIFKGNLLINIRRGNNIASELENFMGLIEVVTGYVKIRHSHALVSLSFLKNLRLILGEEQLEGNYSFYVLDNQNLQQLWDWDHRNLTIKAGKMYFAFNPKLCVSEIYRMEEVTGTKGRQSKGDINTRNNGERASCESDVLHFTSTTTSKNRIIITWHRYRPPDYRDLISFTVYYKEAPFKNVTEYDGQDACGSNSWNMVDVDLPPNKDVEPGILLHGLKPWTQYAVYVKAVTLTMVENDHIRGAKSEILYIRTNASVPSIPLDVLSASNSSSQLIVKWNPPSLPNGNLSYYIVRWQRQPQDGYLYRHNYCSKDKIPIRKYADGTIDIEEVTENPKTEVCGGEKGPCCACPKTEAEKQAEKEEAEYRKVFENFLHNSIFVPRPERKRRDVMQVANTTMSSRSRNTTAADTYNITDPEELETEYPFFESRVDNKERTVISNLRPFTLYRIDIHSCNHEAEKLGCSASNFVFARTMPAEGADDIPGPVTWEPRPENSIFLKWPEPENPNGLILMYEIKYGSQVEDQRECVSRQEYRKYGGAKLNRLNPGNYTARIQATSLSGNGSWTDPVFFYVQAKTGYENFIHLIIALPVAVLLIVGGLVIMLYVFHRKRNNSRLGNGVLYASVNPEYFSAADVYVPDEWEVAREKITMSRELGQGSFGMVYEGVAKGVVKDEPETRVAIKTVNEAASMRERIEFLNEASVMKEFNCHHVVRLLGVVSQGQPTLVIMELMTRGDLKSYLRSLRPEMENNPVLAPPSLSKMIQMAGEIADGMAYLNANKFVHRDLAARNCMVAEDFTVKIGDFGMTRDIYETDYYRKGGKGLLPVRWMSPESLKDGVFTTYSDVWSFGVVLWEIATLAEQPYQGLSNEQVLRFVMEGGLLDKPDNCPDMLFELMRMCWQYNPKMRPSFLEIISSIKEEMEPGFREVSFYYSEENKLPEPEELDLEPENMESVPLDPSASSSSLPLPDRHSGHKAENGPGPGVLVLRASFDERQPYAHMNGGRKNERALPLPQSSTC
Sequence of Ba/F3-EGFR wild-type cell line (P00533 whole entry, stated change not applied): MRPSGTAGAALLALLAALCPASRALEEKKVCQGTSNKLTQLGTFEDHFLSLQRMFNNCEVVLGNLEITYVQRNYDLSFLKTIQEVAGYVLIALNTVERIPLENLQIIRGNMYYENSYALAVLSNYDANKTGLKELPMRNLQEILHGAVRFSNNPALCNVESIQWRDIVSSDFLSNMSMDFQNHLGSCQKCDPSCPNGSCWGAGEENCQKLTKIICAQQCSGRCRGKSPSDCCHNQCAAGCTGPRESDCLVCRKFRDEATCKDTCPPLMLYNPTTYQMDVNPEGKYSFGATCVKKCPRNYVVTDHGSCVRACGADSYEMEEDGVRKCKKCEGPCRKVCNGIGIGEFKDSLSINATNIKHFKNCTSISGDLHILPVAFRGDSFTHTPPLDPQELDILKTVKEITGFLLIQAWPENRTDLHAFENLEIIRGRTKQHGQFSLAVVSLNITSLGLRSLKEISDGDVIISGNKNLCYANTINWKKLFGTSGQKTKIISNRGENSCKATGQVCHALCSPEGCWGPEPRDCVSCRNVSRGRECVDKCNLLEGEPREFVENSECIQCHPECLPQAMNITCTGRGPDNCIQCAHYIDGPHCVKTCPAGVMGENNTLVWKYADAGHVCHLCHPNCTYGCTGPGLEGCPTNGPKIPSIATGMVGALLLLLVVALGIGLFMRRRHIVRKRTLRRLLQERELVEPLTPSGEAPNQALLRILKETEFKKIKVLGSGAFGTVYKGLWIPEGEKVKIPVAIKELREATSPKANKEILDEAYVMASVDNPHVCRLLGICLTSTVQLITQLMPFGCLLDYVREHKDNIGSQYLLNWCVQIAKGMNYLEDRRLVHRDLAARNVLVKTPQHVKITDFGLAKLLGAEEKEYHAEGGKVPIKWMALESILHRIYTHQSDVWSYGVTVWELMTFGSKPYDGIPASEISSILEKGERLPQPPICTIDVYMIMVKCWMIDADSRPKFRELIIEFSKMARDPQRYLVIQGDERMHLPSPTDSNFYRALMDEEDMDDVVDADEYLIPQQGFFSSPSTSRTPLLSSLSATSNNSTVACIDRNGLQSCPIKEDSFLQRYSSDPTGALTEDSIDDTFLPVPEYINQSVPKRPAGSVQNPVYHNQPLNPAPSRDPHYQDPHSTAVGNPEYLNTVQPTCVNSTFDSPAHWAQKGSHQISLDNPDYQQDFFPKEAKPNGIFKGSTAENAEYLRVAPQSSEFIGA

The pIC50 is the IC50 on a negative log10 scale, so that one unit is a factor of ten. For the molecule `COc1cn(-c2ccc(Nc3nc(Nc4cc(-c5cnn(C)c5)c(N5CCN(c6cccnc6)CC5)cc4OC)ncc3Br)c(P(C)(C)=O)c2)cn1` [Compound K-083, (2-((5-Bromo-2-((2-methoxy-5-(1-methyl-1H-pyrazol-4-yl)-4-(4-(pyridin-3-yl)Piperazin-1-yl)phenyl)amino)pyrimidin-4-yl)amino)-5-(4-methoxy-1H-imidazol-1-yl)phenyl)dimethylphosphine oxide], the GI50 worked out at 0.001 µM in assay [1] (setting [7]) and 0.113 µM in assay [2]. Besides, the pIC50 in assay [3] is 6.04.

As for `CCc1cc(Nc2ncc(Br)c(Nc3ccc(-c4cnn(C)c4)cc3P(C)(C)=O)n2)c(OC)cc1N1CCC(N2CCCC2)CC1` [Compound K-001], the GI50 came to 0.0156 µM in assay [1] (setting [7]) and 0.335 µM in assay [2]. Moreover, the pIC50 in assay [3] was 6.43.

On to `CCn1cc(-c2cc(Nc3ncc(Br)c(Nc4ccc(-c5cc(C)n(C)n5)cc4P(C)(C)=O)n3)c(OC)cc2N2CCC(N3CCN(C)CC3)CC2)cn1` [Compound K-005, (2-((5-Bromo-2-((5-(1-ethyl-1H-pyrazol-4-yl)-2-methoxy-4-(4-(4-methylpiperazin-1-yl)piperidin-1-yl)phenyl)amino)pyrimidin-4-yl)amino)-5-(1,5-dimethyl-1H-pyrazol-3-yl)phenyl)dimethylphosphine oxide], for which the GI50 was 0.0279 µM in assay [1] (setting [7]) and 0.482 µM in assay [2]. Further, in assay [3], the pIC50 was 6.38.

With `COc1cc(N2CCC(N3CCCCC3)CC2)c(-c2cnn(C)c2)cc1Nc1ncc(Br)c(Nc2ccc(-c3ccccc3)c(C)c2P(C)(C)=O)n1` [Compound K-051], the GI50 in assay [1] (setting [7]) was 0.0014 µM; in assay [2] it was 0.0158 µM. In assay [3], the pIC50 was 6.90.

As to `CCc1cc(Nc2ncc(Br)c(Nc3ccc(-c4cnn(CC)c4)cc3P(C)(C)=O)n2)c(OC)cc1N1CCC(N2CCN(C)CC2)CC1` [Compound 4, (2-((5-Bromo-2-((5-ethyl-2-methoxy-4-(4-(4-methylpiperazin-1-yl)piperidin-1-yl)phenyl)amino)pyrimidin-4-yl)amino)-5-(1-ethyl-1hydro-pyrazol-4-yl)phenyl)dimethylphosphine oxide], the pIC50 in assay [4] is 9.22; in assay [5], 7.14; in assay [3], 6.33. The results for the GI50 in assay [1] (setting [7]) and in assay [2] were 0.0019 µM and 0.0843 µM, respectively.

As to `CCc1cc(Nc2ncc(Br)c(Nc3ccc(-c4cnn(C(F)F)n4)cc3P(C)(C)=O)n2)c(OC)cc1N1CCC(N2CCN(C)CC2)CC1` [Compound K-006, (2-((5-Bromo-2-((5-ethyl-2-methoxy-4-(4-(4-methylpiperazin-1-yl)piperidin-1-yl)phenyl)amino)pyrimidin-4-yl)amino)-5-(2-(difluoromethyl)-2H-1,2,3-triazol-4-yl)phenyl)dimethylphosphine oxide], the GI50 was determined as 0.0116 µM in assay [1] (setting [7]) and 0.18 µM in assay [2]. Besides, the pIC50 in assay [3] is 5.90.

For the molecule `CCc1cc(Nc2ncc(Br)c(Nc3ccc(-c4cnn(C(C)C)n4)cc3P(C)(C)=O)n2)c(OC)cc1N1CCC(N2CCN(C)CC2)CC1` [Compound 85, (2-((5-Bromo-2-((5-ethyl-2-methoxy-4-(4-(4-methylpiperazin-1-yl)piperidin-1-yl)phenyl)amino)pyrimidin-4-yl)amino)-5-(2-isopropyl-2H-l,2,3-triazol-4-yl)phenyl)dimethylphosphine oxide], the values for the GI50 in assay [1] (setting [7]) and in assay [2] were 0.0286 µM and 1.12 µM, respectively. Moreover, in assay [3], the pIC50 was 5.24.

Usually IC50 stands for the point on the concentration scale where inhibition reaches its midpoint. On to `COc1cc(N2CCC(N3CCN(C)CC3)CC2)ccc1Nc1ncc(Cl)c(Nc2ccccc2P(C)(C)=O)n1` [Brigatinib, reference compound], for which the pIC50 in assay [5] is 7.63. Also, the GI50 was determined as 0.0649 µM in assay [1] (read-out: EGFR Δ19del/T790M/C797S IC50, Table 2) and 0.0225 µM in assay [2]. The 50% inhibitory concentration (IC50) in assay [3] (read-out: A431 IC50(nM)) stood at 309 nM.

Consider `COc1cnn(-c2ccc(Nc3nc(Nc4cc(-c5cnn(C)c5)c(N5CCN(C(C)=O)CC5)cc4OC)ncc3Br)c(P(C)(C)=O)c2)c1` [Compound K-082], for which the GI50 in assay [1] (setting [7]) came to 0.0114 µM; in assay [2], 2.96 µM. Also, the pIC50 in assay [3] is 5.90.

For `COc1cnn(-c2ccc(Nc3nc(Nc4cc(C)c(N5CCOCC5)c(OC)c4)ncc3Br)c(P(C)(C)=O)c2)c1` [Compound K-031, (2-((5-Bromo-2-((3-methoxy-5-methyl-4-morpholinophenyl)amino)pyrimidin-4-yl)amino)-5-(4-methoxy-1H-pyrazol-1-yl)phenyl)dimethylphosphine oxide], the pIC50 in assay [4] is 8.85; in assay [6] it was 5.95; in assay [5], 6.40. For the same molecule, the values for the GI50 in assay [1] (setting [7]) and in assay [2] were 0.0168 µM and 0.15 µM, respectively.

`CCc1cc(Nc2ncc(Br)c(Nc3ccc(-c4ccco4)cc3P(C)(C)=O)n2)c(OC)cc1N1CCC(N2CCN(C)CC2)CC1` [Compound 16, (2-((5-Bromo-2-((5-ethyl-2-methoxy-4-(4-(4-methylpiperazin-1-yl)piperidin-1-yl)phenyl)amino)pyrimidin-4-yl)amino)-5-(furan-2-yl)phenyl)dimethylphosphine oxide]: the pIC50 in assay [4] was 9.40; in assay [3], 6.25. Further, the GI50 was 0.0054 µM in assay [1] (setting [7]) and 0.141 µM in assay [2].

`CCc1cc(Nc2ncc(Br)c(Nc3ccc(-c4cnn(C)c4)cc3P(C)(C)=O)n2)c(OC)cc1N1CCC(N2CCN(C)CC2)CC1` [Compound 3, (2-((5-Bromo-2-((5-ethyl-2-methoxy-4-(4-(4-methylpiperazin-1-yl)piperidin-1-yl)phenyl)amino)pyrimidin-4-yl)amino)-5-(1-methyl-1hydro-pyrazol-4-yl)phenyl)dimethylphosphine oxide]: the negative-log IC50 (pIC50) in assay [4] is 9.52; in assay [5], 7.27; in assay [3] it was 6.22. Besides, the GI50 came to 0.0045 µM in assay [1] (setting [7]) and 0.107 µM in assay [2].

Regarding `COc1cc(N2CCC(N3CCN(C)CC3)CC2)ccc1Nc1ncc(Cl)c(Nc2ccc(C)cc2P(C)(C)=O)n1` [compound 1, reference compound], the pIC50 in assay [6] is 7.22; in assay [5], 7.36; in assay [3], 6.22. The GI50 in assay [1] (setting [7]) was determined as 0.0499 µM; in assay [2], 0.836 µM.

`COc1cnn(-c2ccc(Nc3nc(Nc4cc(-c5cnn(C)c5)c(N5CCN(C6CCCC6)CC5)cc4OC)ncc3Br)c(P(C)(C)=O)c2)c1` [Compound K-081]: the GI50 was 0.001 µM in assay [1] (setting [7]) and 0.0521 µM in assay [2]. The pIC50 in assay [3] is 6.42.

For the molecule `CCc1cc(Nc2ncc(Br)c(Nc3ccc(-c4cnc(C)cn4)cc3P(C)(C)=O)n2)c(OC)cc1N1CCC(N2CCN(C)CC2)CC1` [Compound K-065, (2-((5-Bromo-2-((5-ethyl-2-methoxy-4-(4-(4-methylpiperazin-1-yl)piperidin-1-yl)phenyl)amino)pyrimidin-4-yl)amino)-5-(5-methylpyrazin-2-yl)phenyl)dimethylphosphine oxide], the GI50 in assay [2] turned out to be 0.132 µM.

With `CCc1cc(Nc2ncc(Br)c(Nc3ccc(-c4cnc(C)c(C)n4)cc3P(C)(C)=O)n2)c(OC)cc1N1CCC(N2CCN(C)CC2)CC1` [Compound K-067, (2-((5-Bromo-2-((5-ethyl-2-methoxy-4-(4-(4-methylpiperazin-1-/l)piperidin-1-yl)phenyl)amino)pyrimidin-4-yl)amino)-5-(5,6-dimethylpyrazin-2-yl)phenyl)dimethylphosphine oxide], the GI50 in assay [2] came to 0.417 µM.

With `CCc1cc(Nc2ncc(Br)c(Nc3ccc(-c4cnc(C5CC5)cn4)cc3P(C)(C)=O)n2)c(OC)cc1N1CCC(N2CCN(C)CC2)CC1` [Compound K-064, (2-((5-Bromo-2-((5-ethyl-2-methoxy-4-(4-(4-methylpiperazin-1-yl)piperidin-1-yl)phenyl)amino)pyrimidin-4-yl)amino)-5-(5-cyclopropylpyrazin-2-yl)phenyl)dimethylphosphine oxide], the GI50 in assay [2] is 0.152 µM.
